ChEMBL document CHEMBL5584219 (Bioorg Med Chem Lett, 2024)
Calls of active or inactive are those of the source. The rule behind the calls is not given here.

Legend:
A549 [1] = assay: Induction of apoptosis in human A549 cells assessed as viable cells at 10 uM incubated for 48 hrs by annexin V FITC and propidium iodide based flow cytometry (reference value: 95.6 %); format: functional; conditions: read-out: Activity
[2] = Antiproliferative activity against human PC9 Gefitinib-resistant (GR) cell assessed as inhibition of cell growth incubated for 48 hrs by MTT assay; format: functional, cell-based; conditions: Gefitinib-resistant PC9, 48 h
A549 [3] = assay: Induction of apoptosis in human A549 cells assessed as early apoptotic cells at 10 uM incubated for 48 hrs in presence of erlotinib by annexin V FITC and propidium iodide based flow cytometry (reference value: 2.13 %); format: functional
A549 [4] = assay: Induction of cell cycle arrest in human A549 cells assessed as accumulation of cells at S phase at 10 uM incubated for 48 hrs in presence of erlotinib by flow cytometry analysis (reference value: 46.37%); format: functional
A549 [5] = assay: Induction of apoptosis in human A549 cells assessed as early apoptotic cells at 10 uM incubated for 48 hrs by annexin V FITC and propidium iodide based flow cytometry (reference value: 2.13 %); format: functional
A549 [6] = assay: Induction of cell cycle arrest in human A549 cells assessed as accumulation of cells at G0/G1 phase at 10 uM incubated for 48 hrs by flow cytometry analysis (reference value: 53.63%); format: functional
A549 [7] = assay: Induction of cell cycle arrest in human A549 cells assessed as accumulation of cells at G0/G1 phase at 10 uM incubated for 48 hrs in presence of erlotinib by flow cytometry analysis (reference value: 53.63%); format: functional
A549 [8] = assay: Induction of apoptosis in human A549 cells assessed as late apoptotic cells at 10 uM incubated for 48 hrs by annexin V FITC and propidium iodide based flow cytometry (reference value: 0.76 %); format: functional
A549 [9] = assay: Antiproliferative activity against human A549 cells assessed as inhibition of cell growth incubated for 48 hrs by MTT assay; format: functional, cell-based; conditions: A549, 48 h
PC-9 [10] = assay: Antiproliferative activity against human PC-9 cells assessed as inhibition of cell growth incubated for 48 hrs by MTT assay; format: functional, cell-based; conditions: PC-9, 48 h
NCI-H460 [11] = assay: Antiproliferative activity against human NCI-H460 cells assessed as inhibition of cell growth incubated for 48 hrs by MTT assay; format: functional, cell-based; conditions: NCI-H460, 48 h
A549 [12] = assay: Induction of cell cycle arrest in human A549 cells assessed as accumulation of cells at S phase at 10 uM incubated for 48 hrs by flow cytometry analysis (reference value: 46.37%); format: functional
A549 [13] = assay: Induction of apoptosis in human A549 cells assessed as necrotic cells at 10 uM incubated for 48 hrs by annexin V FITC and propidium iodide based flow cytometry (reference value: 1.49 %); format: functional
PC-9 [14] = assay: Antiproliferative activity against human PC-9 cells assessed as inhibition of cell growth incubated for 48 hrs in presence of erlotinib by MTT assay; format: functional, cell-based; conditions: PC-9, 48 h
A549 [15] = assay: Induction of apoptosis in human A549 cells assessed as necrotic cells at 10 uM incubated for 48 hrs in presence of erlotinib by annexin V FITC and propidium iodide based flow cytometry (reference value: 1.49 %); format: functional
A549 [16] = assay: Antiproliferative activity against human A549 cells assessed as inhibition of cell growth incubated for 48 hrs in presence of erlotinib by MTT assay; format: functional, cell-based; conditions: A549, 48 h
[17] = Antiproliferative activity against human PC9 Gefitinib-resistant (GR) cell assessed as inhibition of cell growth incubated for 48 hrs in presence of erlotinib by MTT assay; format: functional, cell-based; conditions: Gefitinib-resistant PC9, 48 h
A549 [18] = assay: Induction of apoptosis in human A549 cells assessed as viable cells at 10 uM incubated for 48 hrs in presence of erlotinib by annexin V FITC and propidium iodide based flow cytometry (reference value: 95.6 %); format: functional; conditions: read-out: Activity
A549 [19] = assay: Induction of apoptosis in human A549 cells assessed as late apoptotic cells at 10 uM incubated for 48 hrs in presence of erlotinib by annexin V FITC and propidium iodide based flow cytometry (reference value: 0.76 %); format: functional
NCI-H460 [20] = assay: Antiproliferative activity against human NCI-H460 cells assessed as inhibition of cell growth incubated for 48 hrs in presence of erlotinib by MTT assay; format: functional, cell-based; conditions: NCI-H460, 48 h
A549 [21] = assay: Induction of apoptosis in human A549 cells assessed as increase in p53 protein expression at 10 uM incubated for 48 hrs by Western blot analysis; format: functional, cell-based
A549 [22] = assay: Induction of apoptosis in human A549 cells assessed as increase in bax protein expression at 10 uM incubated for 48 hrs by Western blot analysis; format: functional, cell-based
A549 [23] = assay: Induction of apoptosis in human A549 cells assessed as upregulation of caspase-3 protein expression at 10 uM incubated for 48 hrs by Western blot analysis; format: functional, cell-based
A549 [24] = assay: Induction of apoptosis in human A549 cells assessed as decrease in bcl-2 protein expression at 10 uM incubated for 48 hrs by Western blot analysis; format: functional, cell-based
A549 [25] = assay: Induction of apoptosis in human A549 cells assessed as upregulation of caspase-9 protein expression at 10 uM incubated for 48 hrs by Western blot analysis; format: functional, cell-based
A549 [26] = assay: Induction of apoptosis in human A549 cells assessed as downregulation of EGFR expression level at 10 uM incubated for 48 hrs by Western blot analysis; format: functional, cell-based
A549 [27] = assay: Induction of cell cycle arrest in human A549 cells assessed as accumulation of cells at S phase at 10 uM incubated for 48 hrs in presence of 10-hydroxyl-evodiamine by flow cytometry analysis (reference value: 46.37%); format: functional
A549 [28] = assay: Induction of cell cycle arrest in human A549 cells assessed as accumulation of cells at G0/G1 phase at 10 uM incubated for 48 hrs in presence of 10-hydroxyl-evodiamine by flow cytometry analysis (reference value: 53.63%); format: functional
cells = conditions: Homo sapiens, Gefitinib-resistant PC9, 48 h
A549 [29] = assay: Induction of apoptosis in human A549 cells assessed as necrotic cells at 10 uM incubated for 48 hrs in presence of 10-hydroxyl-evodiamine by annexin V FITC and propidium iodide based flow cytometry (reference value: 1.49 %); format: functional
A549 [30] = assay: Induction of apoptosis in human A549 cells assessed as late apoptotic cells at 10 uM incubated for 48 hrs in presence of 10-hydroxyl-evodiamine by annexin V FITC and propidium iodide based flow cytometry (reference value: 0.76 %); format: functional
[31] = Antiproliferative activity against human PC9 Gefitinib-resistant (GR) cell assessed as inhibition of cell growth incubated for 48 hrs in presence of evodiamine by MTT assay; format: functional, cell-based; conditions: Gefitinib-resistant PC9, 48 h
PC-9 [32] = assay: Antiproliferative activity against human PC-9 cells assessed as inhibition of cell growth incubated for 48 hrs in presence of 10-hydroxyl-evodiamine by MTT assay; format: functional, cell-based; conditions: PC-9, 48 h
PC-9 [33] = assay: Antiproliferative activity against human PC-9 cells assessed as inhibition of cell growth incubated for 48 hrs in presence of evodiamine by MTT assay; format: functional, cell-based; conditions: PC-9, 48 h
A549 [34] = assay: Induction of apoptosis in human A549 cells assessed as viable cells at 10 uM incubated for 48 hrs in presence of 10-hydroxyl-evodiamine by annexin V FITC and propidium iodide based flow cytometry (reference value: 95.6 %); format: functional; conditions: read-out: Activity
A549 [35] = assay: cells; conditions: Homo sapiens, A549, 48 h
A549 [36] = assay: Induction of apoptosis in human A549 cells assessed as early apoptotic cells at 10 uM incubated for 48 hrs in presence of 10-hydroxyl-evodiamine by annexin V FITC and propidium iodide based flow cytometry (reference value: 2.13 %); format: functional
A549 [37] = assay: cells; conditions: Homo sapiens, A549, 48 h; remark: listed apart in the source
Description: Antiproliferative activity against human A549 cells assessed as inhibition of cell growth incubated for 48 hrs in presence of evodiamine by MTT assay

| IC50 (A549 [9]) [µM] | IC50 (PC-9 [10]) [µM] | IC50 (NCI-H460 [11]) [µM] | IC50 (PC-9 [14]) [µM] | IC50 (A549 [16]) [µM] | IC50 (NCI-H460 [20]) [µM] | Structure (SMILES) | viability at 10 µM (A549 [1]) [%] | IC50 [2] [µM] | Activity (A549 [5]) [%] | Activity (A549 [6]) [%] | Activity (A549 [8]) [%] | Activity (A549 [12]) [%] | Activity (A549 [13]) [%] | IC50 [17] [µM] | also measured |
| --- | --- | --- | --- | --- | --- | --- | --- | --- | --- | --- | --- | --- | --- | --- | --- |
| 11.1 | 10.7 | 27.8 | 1.72 | 7.74 | 12.8 | CN1c2ccccc2C(=O)N2CCc3c([nH]c4ccc(O)cc34)[C@H]21 | 70.2 | 10 | 27.8 | 78.23 | 1.7 | 21.77 | 0.34 | 3.05 | Activity (A549 [3]): 34.6%; Activity (A549 [4]): 10.64%; Activity (A549 [7]): 89.36%; Activity (A549 [15]): 1.26%; viability at 10 µM (A549 [18]): 62%; Activity (A549 [19]): 2.12% |
| 24.7 | 10.2 | 17.1 | 2.37 | 9.19 | 13.4 | CN1c2ccccc2C(=O)N2CCc3c([nH]c4ccccc34)[C@H]21 |  | 11.3 |  |  |  |  |  | 4.81 |  |
| 23.5 | 1.8 |  |  |  |  | C#Cc1cccc(Nc2ncnc3cc(OCCOC)c(OCCOC)cc23)c1 [ERLOTINIB] | 93 | 6.92 | 4.82 | 61.87 | 1.21 | 37.13 | 1 |  | Activity (A549 [27]): 10.64%; Activity (A549 [28]): 89.36%; IC50 (cells): 3.05 µM; Activity (A549 [29]): 1.26%; Activity (A549 [30]): 2.12%; IC50 [31]: 4.81 µM; IC50 (PC-9 [32]): 1.72 µM; IC50 (PC-9 [33]): 2.37 µM; viability at 10 µM (A549 [34]): 62%; IC50 (A549 [35]): 7.74 µM; Activity (A549 [36]): 34.6%; IC50 (A549 [37]): 9.19 µM |

| Structure (SMILES) | IC50 (A549 [9]) [µM] | IC50 (PC-9 [10]) [µM] | IC50 (NCI-H460 [11]) [µM] | IC50 (PC-9 [14]) [µM] | IC50 (A549 [16]) [µM] | IC50 (NCI-H460 [20]) [µM] | viability at 10 µM (A549 [1]) [%] | IC50 [2] [µM] | Activity (A549 [5]) [%] | Activity (A549 [6]) [%] | Activity (A549 [8]) [%] | Activity (A549 [12]) [%] | Activity (A549 [13]) [%] | IC50 [17] [µM] | also measured |
| --- | --- | --- | --- | --- | --- | --- | --- | --- | --- | --- | --- | --- | --- | --- | --- |
| COCCOc1cc2ncnc(Nc3cccc(-c4cn(CCOCCOCCOCCNC(=O)Cn5c(C)c(COC(=O)N(C)CCN(C)C(=O)Oc6ccc7[nH]c8c(c7c6)CCN6C(=O)c7ccccc7N(C)[C@H]86)c6c5C(=O)C=C(OC)C6=O)nn4)c3)c2cc1OCCOC | 3.79 | 1.14 | 10.6 |  |  |  | 77.4 | 4.14 | 20.9 | 62.7 | 1.07 | 37.3 | 0.65 |  | Activity (A549 [21]): Active; Activity (A549 [22]): Active; Activity (A549 [23]): Active; Activity (A549 [24]): Active; Activity (A549 [25]): Active; Activity (A549 [26]): Active |
